How the values were obtained:
[1] = Cytotoxicity in mock-infected MT4 CMV-EGFP cells (GFP fluorescence); type: cell-based; settings: human, 50% cytotoxic concentration as negative log
Text: Analogously, MT4 cells are engineered with GFP and the constitutional cytomegalovirus (CMV) promotor. This cell line is designated MT4 CMV-EGFP, and can be used for the in vitro evaluation of cytotoxicity of investigational compounds. In this cell line, GFP levels are comparably to those of infected MT4 LTR-EGFP cells. Cytotoxic investigational compounds reduce GFP levels of mock-infected MT4 CMV-EGFP cells.
(§1) Effective concentration values such as 50% effective concentration (EC50) can be determined and are usually expressed in μM. An EC50 value is defined as the concentration of test compound that reduces the fluorescence of HIV-infected cells by 50%. The 50% cytotoxic concentration (CC50 in μM) is defined as the concentration of test compound that reduces fluorescence of the mock-infected cells by 50%. The ratio of CC50 to EC50 is defined as the selectivity index (SI) and is an indication of the selectivity of the anti-HIV activity of the inhibitor. The ultimate monitoring of HIV-1 infection and cytotoxicity is done using a scanning microscope. Image analysis allows very sensitive detection of viral infection. Measurements are done before cell necrosis, which usually takes place about five days after infection, in particular measurements are performed three days after infection.

[2] = test system: wild-type HIV-IIIB strain; test: Anti-viral activity in cellular assay, MT4 LTR-EGFP cells (GFP fluorescence); type: cell-based, HIV-1; settings: Human immunodeficiency virus 1, 72 h, pEC50 = -log10(EC50), measured three days after infection
Procedure: The compounds of the present invention were tested for anti-viral activity in a cellular assay, which was performed according to the following procedure.
The human T-cell line MT4 is engineered with Green Fluorescent Protein (GFP) and an HIV-specific promoter, HIV-1 long terminal repeat (LTR). This cell line is designated MT4 LTR-EGFP, and can be used for the in vitro evaluation of anti-HIV activity of investigational compounds. In HIV-1 infected cells, the Tat protein is produced which upregulates the LTR promotor and finally leads to stimulation of the GFP reporter production, allowing to measure ongoing HIV-infection fluorometrically.
as §1
The following Table 6 lists pEC50 values against wild-type HIV-IIIB strain as well as pEC50 values for a selected number of compounds of the invention. A pEC50 value corresponds to −log10(EC50). Listed are compounds having a pEC50 value of at least 5.00.

SMILES | CC50 at 3 days [1] [nM] | EC50 [2] [nM]
O=c1c2ccccc2c2nc3ccccn3c2n1-c1ccc([N+](=O)[O-])cc1 [Compound 1, 6-(4-nitrophenyl)-pyrido[2′,1′:2,3]imidazo-[4,5-c]isoquinolin-5(6H)-one] | > 32400 | 355
O=c1c2ccccc2c2nc3cc(CO)ccn3c2n1-c1ccc([N+](=O)[O-])cc1 [Compound 9] | > 32400 | 724
O=c1c2ccccc2c2nc3ccc(O)cn3c2n1-c1ccc([N+](=O)[O-])cc1 [Compound 10, 9-hydroxy-6-(4-nitrophenyl)-pyrido[2′,1′:2,3]imidazo[4,5-c]isoquinolin-5(6H)-one] | > 32400 | 155
O=c1c2ccccc2c2nc3ccccn3c2n1-c1ccc(Cl)nc1 [Compound 18] | > 32400 | 8130
Cc1ccc(-n2c(=O)c3ccccc3c3nc4ccccn4c32)cn1 [Compound 19] | > 32400 | 8910
O=c1c2ccccc2c2nc3ccccn3c2n1-c1ccc(Br)nc1 [Compound 21, 6-(6-bromo-pyridin-3-yl)-pyrido-[2′,1′:2,3]imidazo[4,5-c]isoquinolin-5(6H)-one] | > 32400 | 4470
Cc1ccc(-n2c(=O)c3ccccc3c3nc4ccccn4c32)cc1[N+](=O)[O-] [Compound 22] | > 32400 | 2880
CCc1ccc(-n2c(=O)c3ccccc3c3nc4ccccn4c32)cn1 [Compound 27, 6-(6-ethyl-pyridin-3-yl)-pyrido[2′,1′:2,3]imidazo[4,5-c]-isoquinolin-5(6H)-one] | 26300 | 5750
Nc1ccc2nc3c4ccccc4c(=O)n(-c4ccc(Cl)nc4)c3n2c1 [Compound 53, 9-amino-6-(6-chloro-pyridin-3-yl)-pyrido[2′,1′:2,3]imidazo-[4,5-c]isoquinolin-5(6H)-one] | 4570 | 1660
O=C(Nc1ccc2nc3c4ccccc4c(=O)n(-c4ccc(Cl)nc4)c3n2c1)C(F)(F)F [Compound 61, N-[6-(6-chloro-pyridin-3-yl)-5,6-dihydro-5-oxo-pyrido[2′,1′:2,3]imidazo[4,5-c]isoquinolin-9-yl]-2,2,2-trifluoro-acetamide] | > 32400 | 2090
O=c1c2ccccc2c2nc3ccc(NCCN4CCCC4)cn3c2n1-c1ccc([N+](=O)[O-])cc1 [Compound 67, 6-(4-nitrophenyl)-9-(2-pyrrolidin-1-yl-ethylamino)-pyrido[2′,1′:2,3]imidazo[4,5-c]isoquinolin-5(6H)-one] | 2630 | 339
CN(C)CCN(C)c1ccc2nc3c4ccccc4c(=O)n(-c4ccc([N+](=O)[O-])cc4)c3n2c1 [Compound 68] | 16600 | 1230
O=CNc1ccc2nc3c4ccccc4c(=O)n(-c4ccc([N+](=O)[O-])cc4)c3n2c1 [Compound 70] | > 32400 | 603
O=c1c2ccccc2c2nc3ccc(OCCO)cn3c2n1-c1ccc([N+](=O)[O-])cc1 [Compound 74, 9-[2-hydroxy-ethoxy]-6-(4-nitrophenyl)-pyrido[2′,1′:2,3]imidazo[4,5-c]isoquinolin-5(6H)-one] | > 32400 | 871
O=c1c2ccccc2c2nc3ccc(OP(=O)(O)O)cn3c2n1-c1ccc([N+](=O)[O-])cc1 [Compound 76, phosphoric acid 5,6-dihydro-6-(4-nitrophenyl)-5-oxo-pyrido[2′,1′:2,3]imidazo[4,5-c]isoquinolin-9-yl ester] | > 32400 | 74.1
O=c1c2ccccc2c2nc3ccc(OP(=O)(O)O)cn3c2n1-c1ccc(Cl)nc1 [Compound 77] | 25700 | 1120
O=c1c2ccccc2c2nc3ccc(OCCN4CCCC4)cn3c2n1-c1ccc([N+](=O)[O-])cc1 [Compound 78] | > 32400 | 3020
CN(C)CCOc1ccc2nc3c4ccccc4c(=O)n(-c4ccc([N+](=O)[O-])cc4)c3n2c1 [Compound 81] | 13500 | 3160

SMILES | CC50 at 3 days [1] [nM] | EC50 [2] [nM]
CN(C)CCCOc1ccc2nc3c4ccccc4c(=O)n(-c4ccc([N+](=O)[O-])cc4)c3n2c1 [Compound 82] | 8910 | 1120
CN(C)/C=N/c1ccc2nc3c4ccccc4c(=O)n(-c4ccc(Cl)nc4)c3n2c1 [Compound 84, 6-(6-chloro-pyridin-3-yl)-9-[[(dimethylamino)-methylene]amino]-pyrido[2′,1′:2,3]imidazo[4,5-c]isoquinolin-5(6H)-one] | 16600 | 6170
O=C(Nc1ccc2nc3c4ccccc4c(=O)n(-c4ccc([N+](=O)[O-])cc4)c3n2c1)C(F)(F)F [Compound 90] | > 32400 | 398
O=c1c2ccccc2c2nc3sccn3c2n1-c1ccc([N+](=O)[O-])cc1 [Compound 98, 6-(4-nitrophenyl)-thiazolo[2′,3′:2,3]imidazo[4,5-c]isoquinolin-5(6H)-one] | > 32400 | 977
O=c1c2cc(Br)ccc2c2nc3ccccn3c2n1-c1ccc([N+](=O)[O-])cc1 [Compound 101, 3-bromo-6-(4-nitrophenyl)-pyrido[2′,1′:2,3]imidazo[4,5-c]isoquinolin-5(6H)-one] | > 100000 | 2190
O=c1c2sccc2c2nc3ccccn3c2n1-c1ccc([N+](=O)[O-])cc1 [Compound 103, 5-(4-nitrophenyl)-pyrido[2′,1′:2,3]imidazo[4,5-b]thieno[3,2-d]pyridin-4(5H)-one] | > 32400 | 1000
Cc1cccc2c(=O)n(-c3ccc([N+](=O)[O-])cc3)c3c(nc4ccc(O)cn43)c12 [Compound 110, 9-hydroxy-1-methyl-6-(4-nitrophenyl)-pyrido[2′,1′:2,3]imidazo[4,5-c]isoquinolin-5(6H)-one] | 5370 | 53.7
CNc1ccc2nc3c4ccccc4c(=O)n(-c4ccc([N+](=O)[O-])cc4)c3n2n1 [Compound 114] | > 32400 | 245
O=c1c2ccccc2c2nc3ccc(NCCN4CCCC4)nn3c2n1-c1ccc([N+](=O)[O-])cc1 [Compound 115] | 832 | 912
O=c1c2ccccc2c2nc3ccc(NCCCO)nn3c2n1-c1ccc([N+](=O)[O-])cc1 [Compound 118] | > 32400 | 646
CN(C)CCCNc1ccc2nc3c4ccccc4c(=O)n(-c4ccc([N+](=O)[O-])cc4)c3n2n1 [Compound 120] | 1320 | 631
O=c1c2ccccc2c2nc3ccc(NCCO)nn3c2n1-c1ccc([N+](=O)[O-])cc1 [Compound 121, 9-[(2-hydroxyethyl)amino]-6-(4-nitrophenyl)-pyridazo[3′,2′:2,3]imidazo[4,5-c]isoquinolin-5(6H)-one] | 14800 | 275
CN(C)CCNc1ccc2nc3c4ccccc4c(=O)n(-c4ccc([N+](=O)[O-])cc4)c3n2n1 [Compound 122] | 69.2 | 89.1
O=c1c2ccccc2c2nc3ccc(NCc4ccccc4)nn3c2n1-c1ccc([N+](=O)[O-])cc1 [Compound 125] | > 20000 | 5250
O=c1c2ccccc2c2nc3ccc(NCCO)nn3c2n1-c1ccc(Cl)nc1 [Compound 126] | > 32400 | 2140
CCNCCNc1ccc2nc3c4ccccc4c(=O)n(-c4ccc([N+](=O)[O-])cc4)c3n2n1 [Compound 128] | 851 | 30.9
Nc1ccc2nc3c4ccccc4c(=O)n(-c4ccc([N+](=O)[O-])cc4)c3n2n1 [Compound 129, 9-amino-6-(4-nitrophenyl)-pyridazo-[3′,2′:2,3]imidazo[4,5-c]isoquinolin-5(6H)-one] | > 32400 | 166
O=c1c2ccccc2c2nc3ccc(NCCNCCO)nn3c2n1-c1ccc([N+](=O)[O-])cc1 [Compound 130] | 3550 | 219

— patent publication US7994187B2, “HIV inhibiting 3,4-dihydro-imidazo[4,5-B]pyridin-5-ones” (Tibotec Pharmaceuticals Ltd., priority 2006, dated 2011)
